From PubChem BioAssay AID256 (DTP/NCI, 2004) come the findings set out here.

“And” between values parts separate entries of the source, which are not always exact repeats. Equal entries are not always repeated. Toxic doses and inconclusive results are not listed.

This experiment deals with CD2F1 mice, L1210 leukemia ip, survival T/C. Put plainly: NCI In Vivo Anticancer Drug Screen. Data for tumor model L1210 Leukemia (intraperitoneal) in CD2F1 (CDF1) mice. To be noted: higher = longer survival. In outline: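 Tumor-bearing mice (transplanted tumor) were split into treated and vehicle control groups, and the measured endpoint of each treated group was divided by that of its vehicle controls.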

The mark [1] stands for this setting: endpoint: mean survival time, dose: 3.13 mg/kg/injection, schedule: Q04DX003 (ip), vehicle: distilled water + Tween-80.
Setting [2] is: endpoint: mean survival time, dose: 6.25 mg/kg/injection, schedule: Q04DX003 (ip), vehicle: distilled water + Tween-80.
The mark [3] stands for this setting: endpoint: mean survival time, dose: 6.25 mg/kg/injection, schedule: Q04DX003 (ip), vehicle: saline.
Setting [4] is: endpoint: mean survival time, dose: 12.5 mg/kg/injection, schedule: Q04DX003 (ip), vehicle: distilled water + Tween-80.
Setting [5] is: endpoint: mean survival time, dose: 12.5 mg/kg/injection, schedule: Q04DX003 (ip), vehicle: saline.
Setting [6] is: endpoint: mean survival time, dose: 25.0 mg/kg/injection, schedule: Q04DX003 (ip), vehicle: distilled water + Tween-80.
[7] abbreviates: endpoint: mean survival time, dose: 25.0 mg/kg/injection, schedule: Q04DX003 (ip), vehicle: saline.
Setting [8] is: endpoint: mean survival time, dose: 50.0 mg/kg/injection, schedule: Q04DX003 (ip), vehicle: distilled water + Tween-80.
The mark [9] stands for this setting: endpoint: mean survival time, dose: 100.0 mg/kg/injection, schedule: Q04DX003 (ip), vehicle: saline.
Setting [10] is: endpoint: mean survival time, dose: 100.0 mg/kg/injection, schedule: Q01DX001 (ip), vehicle: saline with Tween-80.
The mark [11] stands for this setting: endpoint: mean survival time, dose: 200.0 mg/kg/injection, schedule: Q01DX001 (ip), vehicle: saline with Tween-80.
Setting [12] is: endpoint: mean survival time, dose: 100.0 mg/kg/injection, schedule: Q04DX002 (ip), vehicle: saline with Tween-80.
[13] abbreviates: endpoint: mean survival time, dose: 200.0 mg/kg/injection, schedule: Q04DX002 (ip), vehicle: saline with Tween-80.

For `[NH-]C(CO)C(=O)O.[NH-]C(CO)C(=O)O.[Pd+2]` (centres undefined), the T/C is 104 % of control under setting [1]; 114 % of control (endpoint: mean survival time, dose: 3.13 mg/kg/injection, schedule: Q04DX003 (ip), vehicle: saline); 95 % of control (endpoint: mean survival time, dose: 3.13 mg/kg/injection, schedule: Q04DX003 (ip), vehicle: water); 96 % of control under setting [2]; 94 % of control under setting [3]; 95 % of control (endpoint: mean survival time, dose: 6.25 mg/kg/injection, schedule: Q04DX003 (ip), vehicle: water). In addition, the T/C by setting is: under setting [4], 98 % of control; under setting [5], 102 % of control; (endpoint: mean survival time, dose: 12.5 mg/kg/injection, schedule: Q04DX003 (ip), vehicle: water) 97 % of control; under setting [6], 95 % of control; under setting [7], 103 % of control; (endpoint: mean survival time, dose: 25.0 mg/kg/injection, schedule: Q04DX003 (ip), vehicle: water) 96 % of control. Moreover, the T/C is, setting by setting: under setting [8], 98 % of control; (endpoint: mean survival time, dose: 50.0 mg/kg/injection, schedule: Q04DX003 (ip), vehicle: saline) 107 % of control; (endpoint: mean survival time, dose: 50.0 mg/kg/injection, schedule: Q04DX003 (ip), vehicle: water) 105 % of control; (endpoint: mean survival time, dose: 100.0 mg/kg/injection, schedule: Q04DX003 (ip), vehicle: distilled water + Tween-80) 102 % of control; under setting [9], 106 % of control; (endpoint: mean survival time, dose: 100.0 mg/kg/injection, schedule: Q04DX003 (ip), vehicle: water) 91 % of control.

On to `COc1ccc(/C=C2/Cc3cccc4c([N+](=O)[O-])ccc2c34)cc1`, for which the T/C under setting [10] is 89 % of control; the T/C under setting [11] is 86 % of control; the T/C (endpoint: mean survival time, dose: 400.0 mg/kg/injection, schedule: Q01DX001 (ip), vehicle: saline with Tween-80) was 102 % of control.

Regarding `C/C(=N\n1cc(-c2ccccc2)nc1N)c1ccccc1`, the T/C runs as follows: (endpoint: mean survival time, dose: 75.0 mg/kg/injection, schedule: Q01DX001 (ip), vehicle: saline) 91 % of control; (endpoint: mean survival time, dose: 150.0 mg/kg/injection, schedule: Q01DX001 (ip), vehicle: saline) 97 % of control; (endpoint: mean survival time, dose: 300.0 mg/kg/injection, schedule: Q01DX001 (ip), vehicle: saline) 93 % of control.

`[I][Pt+2][I].[NH-]CC1CCCC[N-]1` (centres undefined): the T/C by setting is: under setting [1], 98 % of control; under setting [2], 95 % of control; under setting [4], 95 % of control; under setting [6], 104 % of control; under setting [8], 98 % of control.

Regarding `CO[C@@]12[C@@H]3N[C@@H]3CN1C1=C(C(=O)C(Nc3cccc(O)c3)=C(C)C1=O)[C@@H]2COC(N)=O`, the T/C is, setting by setting: (endpoint: median survival time, dose: 1.5 mg/kg/injection, schedule: Q01DX001 (ip), vehicle: water) 113 % of control; (endpoint: median survival time, dose: 3.0 mg/kg/injection, schedule: Q01DX001 (ip), vehicle: water) 119 % of control; (endpoint: median survival time, dose: 12.0 mg/kg/injection, schedule: Q01DX001 (ip), vehicle: water) 122 % of control.

As to `COc1ccc(/C=C/c2cc[n+](C)cc2)cc1`, the T/C runs as follows: (endpoint: mean survival time, dose: 12.5 mg/kg/injection, schedule: Q01DX009 (ip), vehicle: saline) 102 % of control; (endpoint: mean survival time, dose: 25.0 mg/kg/injection, schedule: Q01DX009 (ip), vehicle: saline) 95 % of control.

As for `COC(=O)CCS(=O)(=O)CCC(=O)OC`, the T/C runs as follows: (endpoint: mean survival time, dose: 100.0 mg/kg/injection, schedule: Q04DX003 (ip), vehicle: Klucel (hydroxypropylcellulose) (HPC)) 103 % of control; (endpoint: mean survival time, dose: 200.0 mg/kg/injection, schedule: Q04DX003 (ip), vehicle: Klucel (hydroxypropylcellulose) (HPC)) 100 % of control; (endpoint: mean survival time, dose: 400.0 mg/kg/injection, schedule: Q04DX003 (ip), vehicle: Klucel (hydroxypropylcellulose) (HPC)) 103 % of control.

As for `O=C(O)C1CC(c2ccccc2)=NN1c1ccccc1` (centres undefined), the T/C is, setting by setting: (endpoint: mean survival time, dose: 12.5 mg/kg/injection, schedule: Q01DX009 (ip), vehicle: water) 101 % of control and 103 % of control and 104 % of control; (endpoint: mean survival time, dose: 25.0 mg/kg/injection, schedule: Q01DX009 (ip), vehicle: water) 96 % of control and 101 % of control and 102 % of control; (endpoint: mean survival time, dose: 50.0 mg/kg/injection, schedule: Q01DX009 (ip), vehicle: water) 96 % of control and 102 % of control (2×); (endpoint: mean survival time, dose: 100.0 mg/kg/injection, schedule: Q01DX009 (ip), vehicle: water) 93 % of control and 102 % of control and 104 % of control; (endpoint: mean survival time, dose: 200.0 mg/kg/injection, schedule: Q01DX009 (ip), vehicle: water) 102 % of control (2×) and 112 % of control.

As to `[Cl][Pt+2][Cl].[NH-]CC1(C[NH-])CCCC1`, the T/C was 122 % of control (endpoint: mean survival time, dose: 1.56 mg/kg/injection, schedule: Q04DX003 (ip), vehicle: saline); 152 % of control (endpoint: mean survival time, dose: 3.12 mg/kg/injection, schedule: Q04DX003 (ip), vehicle: saline); 197 % of control under setting [3]; 160 % of control (endpoint: mean survival time, dose: 12.5 mg/kg/injection, schedule: Q04DX003 (ip), vehicle: saline with Tween-80); 260 % of control under setting [5]; 98 % of control (endpoint: mean survival time, dose: 25.0 mg/kg/injection, schedule: Q04DX003 (ip), vehicle: saline with Tween-80). In addition, the T/C was 114 % of control under setting [7]; 232 % of control (endpoint: median survival time, dose: 1.0 mg/kg/injection, schedule: Q01DX009 (ip), vehicle: saline); 175 % of control (endpoint: median survival time, dose: 2.0 mg/kg/injection, schedule: Q01DX009 (ip), vehicle: saline); 201 % of control (endpoint: median survival time, dose: 4.0 mg/kg/injection, schedule: Q01DX001 (ip), vehicle: saline); 101 % of control (endpoint: median survival time, dose: 4.0 mg/kg/injection, schedule: Q01DX009 (ip), vehicle: saline); 200 % of control (endpoint: median survival time, dose: 8.0 mg/kg/injection, schedule: Q01DX001 (ip), vehicle: saline). In addition, the T/C was 97 % of control (endpoint: median survival time, dose: 8.0 mg/kg/injection, schedule: Q01DX009 (ip), vehicle: saline); 104 % of control (endpoint: median survival time, dose: 12.0 mg/kg/injection, schedule: Q01DX001 (ip), vehicle: saline); 97 % of control (endpoint: median survival time, dose: 18.0 mg/kg/injection, schedule: Q01DX001 (ip), vehicle: saline).

Regarding `CC(=O)CC(=O)N1CCN(C(=O)CC(C)=O)CC1`, the T/C under setting [9] was 98 % of control; the T/C (endpoint: mean survival time, dose: 200.0 mg/kg/injection, schedule: Q04DX003 (ip), vehicle: saline) is 96 % of control; the T/C (endpoint: mean survival time, dose: 400.0 mg/kg/injection, schedule: Q04DX003 (ip), vehicle: saline) was 98 % of control.

Take `Nc1nc2c(ncn2CCCc2ccccc2)c(=O)[nH]1`: the T/C under setting [10] is 94 % of control and the T/C under setting [11] was 94 % of control.

Turning to `O=C(O)c1ccccc1C(=O)OC1CCC2CCCCC2C1` (centres undefined), the T/C is 98 % of control (endpoint: mean survival time, dose: 100.0 mg/kg/injection, schedule: Q01DX009 (ip), vehicle: saline with Tween-80); 97 % of control (endpoint: mean survival time, dose: 100.0 mg/kg/injection, schedule: Q04DX003 (ip), vehicle: saline with Tween-80); 95 % of control (endpoint: mean survival time, dose: 200.0 mg/kg/injection, schedule: Q01DX009 (ip), vehicle: saline with Tween-80); 92 % of control (endpoint: mean survival time, dose: 200.0 mg/kg/injection, schedule: Q04DX003 (ip), vehicle: saline with Tween-80); 98 % of control (endpoint: mean survival time, dose: 400.0 mg/kg/injection, schedule: Q01DX009 (ip), vehicle: saline with Tween-80); 101 % of control (endpoint: mean survival time, dose: 400.0 mg/kg/injection, schedule: Q04DX003 (ip), vehicle: saline with Tween-80).

With `NC(CS(=O)c1ccc(Cl)cc1)C(=O)O` (centres undefined), the T/C (endpoint: mean survival time, dose: 6.25 mg/kg/injection, schedule: Q01DX009 (ip), vehicle: saline with Tween-80) is 90 % of control; the T/C (endpoint: mean survival time, dose: 12.5 mg/kg/injection, schedule: Q01DX009 (ip), vehicle: saline with Tween-80) is 94 % of control; the T/C (endpoint: mean survival time, dose: 25.0 mg/kg/injection, schedule: Q01DX009 (ip), vehicle: saline with Tween-80) was 96 % of control.

In the case of `COc1ccccc1N=Nc1c(O)n(-c2ccccc2OC)c(=S)n(-c2ccccc2OC)c1=O`, the T/C (endpoint: mean survival time, dose: 50.0 mg/kg/injection, schedule: Q04DX002 (ip), vehicle: saline with Tween-80) was 98 % of control; the T/C under setting [10] is 93 % of control; the T/C under setting [12] was 94 % of control; the T/C under setting [11] is 94 % of control; the T/C under setting [13] is 102 % of control.

With `Nc1ccnc(SCc2ccc3ccccc3c2)n1`, the T/C under setting [12] was 93 % of control; the T/C under setting [13] was 101 % of control; the T/C (endpoint: mean survival time, dose: 400.0 mg/kg/injection, schedule: Q04DX002 (ip), vehicle: saline with Tween-80) is 101 % of control.
